Experimental data from US4957730A, “Antimycotic nail varnish” (Hoechst Aktiengesellschaft, priority 1985, dated 1990).
≈ marks a conversion by molar mass, not a printed value.

What was measured:
[1] = tested on: Trichophyton mentagrophytes 109 (100/25); assay: in vitro series dilution test (MIC); assay type: cell-based; settings: T. mentagrophytes
Excerpt: (§1) The results of these experiments are shown in Table 1 in comparison with the efficacy of the pyridone compounds against the highly virulent skin fungus Trichophyton mentagrophytes 109 (100/25) in the in vitro series dilution test and in the guinea pig trichophytosis model.
*Minimum inhibitory concentration (MIC) in the series dilution test

[2] = tested on: Trichophyton mentagrophytes 109 (100/25); assay: guinea pig trichophytosis model, inhibition on the skin surface; parameters: concentration or dose not given beside the values; settings: in vivo
Excerpt: as §1
**Percentage inhibition on the skin surface in the guinea pig
Trichophytosis model (W. Dittmar, Mykosen 18 (8), 351-361 (1975)

T. mentagrophytes = assay: penetration test on excised pig skin: growth inhibition in the lowest region of the horny layer
Procedure: The test method for penetration capacity on excised skin from pigs enables the capacity to penetrate of an effective concentration of compounds horny tissue to be tested.
(§2) In the tests for the penetration capacity, the surface of shaved pieces of skin was first treated with 0.3% strength solutions of the compounds 1-8 and likewise with three similar compounds not claimed, in each case dissolved in a mixture of 1 ml of dimethyl sulfoxide and 9 ml of isopropanol, at room temperature and was washed again after 2 hours. The lowest region of the horny layer was then exposed by removing the superficial layers by peeling off with adhesive strips ten times in succession. The deep-lying horny layer now exposed was inoculated with virulent pathogens of nail mycoses (dermatophytes). Conclusions as to the level of the penetration capacity were drawn on the basis of the degree of growth inhibition found.
as §1
***Horny layer penetration: percentage growth inhibition by the substance
which has penetrated into the lowest part of the horny layer.
(§3) *Time between application of the product and stripping of the skin

[3] = tested on: Trichophyton mentagrophytes; assay: penetration test on horny human skin with nail varnishes: growth inhibition in the deep horny layer; settings: for growth inhibition of Trichophyton mentagrophytes in the deep lying horny layer of human skin: in words, 1 or 2 hours
Procedure: as §2
In further experiments, the substantially thicker horny human skin was treated by the test method described above at room temperature for 1 or 2 hours with 3% strength nail varnishes of compounds 9 and 10 and likewise with a similar compound 4, which is not claimed, in comparison with the abovementioned nail varnish containing sulbentine. The varnish base of examples 9 and 10 and of comparison 4 and 5 was prepared by mixing the following constituents:
2-Hydroxy-4-methoxybenzophenone: 0.1%
Sodium dioctyl sulfosuccinate: 1.0%
50% strength solution of a copolymer of methyl vinyl ether and monobutyl maleate in isopropyl alcohol: 30.0%
as §3

[4] = Table 1, pig skin, 0.3% strength solutions, washed after 2 hours, lowest part of horny layer
[5] = humans, 3% strength varnishes, action time 60 min
[6] = humans, 3% strength varnishes, action time 120 min

| MIC [1] [µg/mL] | Compound | Inhibition (%) on skin [2] | Inhibition (%) in the horny layer (T. mentagrophytes; [4]) | further results |
| --- | --- | --- | --- | --- |
| 1.95 (≈ 11.7 µM) | Cc1cc(C(C)C)n(O)c(=O)c1 [Comparison 1, reference compound] | 75,0% | 35,7% |  |
| 3.9 (≈ 14 µM) | CCCCCCCCCCCc1cc(C)cc(=O)n1O [Comparison 2, reference compound] | 100,0% | 9,8% | Inhibition (%) in the deep horny layer (T. mentagrophytes; 2 h): 9,8%; Inhibition (%) in the deep horny layer [3, 5]: 51,4%; Inhibition (%) in the deep horny layer [3, 6]: 49,4%; growth inhibition of Trichophyton mentagrophytes in the deep lying horny layer of human skin ([3]; 3% strength varnishes): only an inadequate inhibiting effect |
| 3.9 (≈ 15.2 µM) | Cc1cc(CCCCc2ccccc2)n(O)c(=O)c1 [Comparison 3, reference compound] | 88,0% | 24,2% |  |
| 1.95 (≈ 8.73 µM) | CCCCCCCc1cc(C)cc(=O)n1O [Example 1] | 89,4% | 97,0% |  |
| 1.95 (≈ 8.73 µM) | CCCCC(CC)c1cc(C)cc(=O)n1O (stereo not drawn) [Example 2] | 85,6% |  | Inhibition (%) in the horny layer (T. mentagrophytes; 2 h): 85,8% |
| 1.95 (≈ 8.22 µM) | Cc1cc(CC(C)CC(C)(C)C)n(O)c(=O)c1 (stereo not drawn) [Example 3] | 91,9% | 99,6% |  |
| 1.95 (≈ 9.41 µM) | Cc1cc(C2CCCCC2)n(O)c(=O)c1 [Example 4] | 88,0% | 98,0% |  |
| 1.95 (≈ 8.29 µM) | Cc1cc(CCC2CCCCC2)n(O)c(=O)c1 [Example 5] | 88,0% | 81,2% |  |
| 1.95 (≈ 8.89 µM) | Cc1cc(C2CC3CCC2C3)n(O)c(=O)c1 (stereo not drawn) [Example 6] | 88,0% | 79,9% |  |
| 1.95 (≈ 7.58 µM) | Cc1ccc(Cc2cc(C)c(C)c(=O)n2O)c(C)c1 [Example 7] | 88,8% | 80,0% |  |
| 1.95 (≈ 8.5 µM) | Cc1cc(CCc2ccccc2)n(O)c(=O)c1 [Example 8] | 88,0% | 81,9% |  |
|  | Cc1cc(CC(C)CC(C)(C)C)n(O)c(=O)c1 (stereo not drawn) [Example 9] |  |  | Inhibition (%) in the deep horny layer (T. mentagrophytes; 2 h): 99,6%; Inhibition (%) in the deep horny layer ([3]; 1 h): 99,0%; Inhibition (%) in the deep horny layer ([3]; 2 h): 99,9%; growth inhibition of Trichophyton mentagrophytes in the deep lying horny layer of human skin ([3]; 3% strength varnishes): almost completely or completely inhibit the growth |
|  | Cc1cc(C2CCCCC2)n(O)c(=O)c1 [Example 10] |  |  | Inhibition (%) in the deep horny layer (T. mentagrophytes; 2 h): 98,0%; Inhibition (%) in the deep horny layer [3, 5]: 100,0%; Inhibition (%) in the deep horny layer [3, 6]: 100,0%; growth inhibition of Trichophyton mentagrophytes in the deep lying horny layer of human skin ([3]; 3% strength varnishes): almost completely or completely inhibit the growth |
